Source: patent US9394238B2, “Process for the production of carnitine from β-lactones” (Lonza Ltd., priority 2010, dated 2016)

Tests used:
rat = assay: Acute toxicity LD50 in rat; assay type: in vivo

For `O=C(O)/C=C/CO` [hydroxycrotonic acid], the Ames-Test (Ames-Test (mutagenicity)) was “negative” and the “LD50 (rat)” value (rat) was over 2000 mg/kg bw.
